The source of these data is publication PMC6719172, “Inhibition of CpLIP2 Lipase Hydrolytic Activity by Four Flavonols (Galangin, Kaempferol, Quercetin, Myricetin) Compared to Orlistat and Their Binding Mechanisms Studied by Quenching of Fluorescence” (Molecules, 2019).

Test [1] addresses T1, CpLIP2 lipase (Candida parapsilosis, UniProt Q8NIN8). Kind of test: Fluorescence resonance energy transfer between CpLIP2 and flavonols (Förster theory). Format: binding. The text has this: Fluorescence emission spectra of CpLIP2 lipase overlap the UV absorption spectrum of each flavonol studied, that may induce fluorescence resonance energy transfer (FRET) governed by the binding distance r between the protein behaving as energy donor and the flavonol energy acceptor. The binding distance r can be calculated via Förster theory with the following Equations (10) and (11):(10) E=1−F/ F0=R06/ R06+r^6 where E is the energy transfer efficiency, which is the photons fraction absorbed and transferred by the donor to the acceptor, F and F0 are the fluorescence intensities of donor (CpLIP2) in the presence or absence of acceptor (flavonol) at the same concentrations. The parameter r is the distance between acceptor and donor, and R0 is the Förster distance, which is the critical energy transfer distance when 50% of the excitation energy is transferred from the donor to the acceptor. […] The value of R0 ranges from 20–90 Å for biological macromolecules.

Test [2] deals with T1, CpLIP2 lipase. Kind of test: Fluorescence emission spectrum of CpLIP2 inhibited by THL. To be noted: 20-fold molar excess THL, pre-incubation at 25 °C for 30 min, excitation 285 nm. The format is binding. The protocol: As mentioned above, a mixture of 300 µL was pipetted in each well. 190 µL sodium phosphate buffer 50 mM, pH 7.0 with 100 µL of NaCl: EtOH (8:2, v/v) solution. […] In parallel, native and denatured lipases without THL were incubated in the same conditions. Denaturation of lipase was done by heating in water bath at 100 °C for 20 min.

Test [3] has as its target T1, CpLIP2 lipase. Kind of test: Inhibition of CpLIP2 hydrolytic activity (ethyl oleate hydrolysis, GC). Conditions: for Ki: non-competitive or uncompetitive model. Format: biochemical. The protocol: The effect of inhibitor concentrations on the hydrolysis reaction rate in standard conditions was assumed to follow either a non-competitive or an uncompetitive model, corresponding to Equation (1):(1) Ki=I/ V0/Vi−1 where V0 and Vi are the initial rates of the reaction without or with inhibitor at concentration I.
Standard CpLIP2 hydrolytic activity measurement. Hydrolysis activities were determined by measuring the initial rates of fatty acid and esters production (µmol·min^−1·mL^−1), using ethyl oleate (C18:1, EE) as substrates. Specific activity is the total activity expressed in µmol·min^−1·mL^−1 in relation to protein concentration (mg·mL^−1). Experiments were conducted as described by. Hydrolysis of ethyl oleate (EO) was performed in aqueous emulsions at 30 °C. This emulsion consisted of 100 µmol·mL^−1 EO emulsified by sonication (Branson Sonifier 250, 20 s, 200 watts, 145 µm amplitude) in an aqueous solution of 20 g·L^−1 poly vinyl alcohol. The reactions of hydrolysis were prepared in glass test tube by adding 100 μL of ethyl oleate emulsion to 800 µL of sodium phosphate buffer 50 mM, pH 6.5; then the solutions were incubated in water bath at 30 °C for 5 min. The reaction was started by the addition of 100 µL of enzyme solution of CpLIP2 with final concentration 3 µg·mL^−1 with activity 2000 U/mL.
The enzyme solution was pre-incubated at 25 °C, with continuous stirring at 350 rpm. Pre-incubation was conducted with 1980 µL CpLIP2 lipase diluted in sodium NaH2PO4/Na2HPO4 phosphate buffer (50 mM, pH 6.5) containing 20 µL absolute EtOH at 2 different times (1 and 30 min). This pre-incubation phase was conducted in closed vials placed during 2 h on a Radleys StarFish Multi-Experiment Workstation. The reaction was conducted for 15 min at 30 °C, and then stopped by adding 950 µL of a mixture of ethanol/sulphuric acid (100:0.8, v/v). After the addition of 50 µL of internal standards (ethanolic solution of pentadecanoic acid and its ethyl and methyl esters, 1 µmol each), lipids were extracted from the mixture with 1 mL of hexane. Samples were then prepared for analyzing esters and free fatty acids by gas chromatography (GC) as follows. Hexane extract (200 µL) was reacted with 25 µL pyridine and 25 µL N-methyl-tri (methylsilyl)-trifluoroacetamide (MSTFA) as silylating agent. Mixtures were incubated in water bath at 50 °C for 20 min, and then samples were ready for analysis. Reaction rates were determined by the analysis of fat composition by capillary gas chromatography after 15 min reaction. It was checked that less than 30% of the total substrate was converted at the end of the 15 min reaction.
A Shimadzu GC 2010 plus gas chromatograph equipped with a flame ionization detector, an automatic sampler (injected volume 0.1 μL) and a split/splitless injector was used for analysis. The capillary column was a DB-5ht (15 m × 0.25 mm, Phenomenex, Le Pecq, France). The helium carrier flow was 1 mL min^−1and the split ratio was 1:50. Temperature conditions were, for reactions with individual substrates: injector 280 °C, detector 290 °C, oven 200–225 °C at 10 °C min^−1 then to 260 °C at 35 °C·min^−1 for ethyl ester (EE) and fatty acid (FA) of C18:1. Calibration curves were realized using emulsions of mixtures of FA and monoesters prepared according to the same protocol, without enzyme and alcohol.
In order to measure the residual lipase activity in the presence of potential inhibitors, the previous method was conducted in the presence and absence of the inhibitors. For each potential inhibitor, the lipase-catalyzed rate of hydrolysis was evaluated after a pre-incubation period between the lipase and the potential inhibitors, which were solubilized in absolute ethanol at 1% of final concentration. The preincubation was performed at 25 °C with continuous stirring at 350 rpm with different concentration of inhibitors (14, 27.5, 55 µM) which represented, respectively 25, 50, 100-fold the final lipase concentration (0.55 µM). […]

In test [4] the target is C. rugosa commercial lipase. On the set-up: method as in doi:10.1016/j.molcatb.2006.02.012. Conditions: cited from earlier work.

T1 sequence (Q8NIN8 entry or part of it): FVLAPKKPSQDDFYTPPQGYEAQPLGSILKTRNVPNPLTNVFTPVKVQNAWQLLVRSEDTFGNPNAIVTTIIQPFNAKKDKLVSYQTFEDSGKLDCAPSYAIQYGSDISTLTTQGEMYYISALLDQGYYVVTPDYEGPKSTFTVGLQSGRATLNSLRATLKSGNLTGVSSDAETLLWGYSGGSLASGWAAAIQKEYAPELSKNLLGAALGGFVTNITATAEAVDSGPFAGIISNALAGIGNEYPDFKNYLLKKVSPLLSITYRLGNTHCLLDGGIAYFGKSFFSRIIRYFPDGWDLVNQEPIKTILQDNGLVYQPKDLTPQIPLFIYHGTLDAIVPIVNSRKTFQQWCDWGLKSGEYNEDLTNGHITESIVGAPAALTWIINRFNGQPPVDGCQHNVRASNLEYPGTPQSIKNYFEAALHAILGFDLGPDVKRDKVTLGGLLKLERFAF

Usually Ki stands for a dissociation constant, usually derived from enzyme kinetics or from competition with a known ligand. As a reminder, the inhibition is the relative decrease from the control value, in per cent. In the case of `CCCCCCCCCCC[C@@H](C[C@@H]1OC(=O)[C@H]1CCCCCC)OC(=O)[C@H](CC(C)C)NC=O` [THL, tetrahydrolipstatin, reference compound], the “occurrence of FRET with CpLIP2 lipase” value on CpLIP2 lipase [1] is on record as “no FRET occurred”. Also, the “blue shift of CpLIP2 fluorescence emission maximum” value on CpLIP2 lipase [2] is given as 4 nm. In addition, the Ki was 1.2 µM at CpLIP2 lipase [3] (estimated after 1 min of pre-incubation) and 0.6 µM on CpLIP2 lipase [3] (estimated after 30 min of pre-incubation). Besides, the “inhibition of CpLIP2 activity” value on CpLIP2 lipase [3] (after 1 min pre-incubation, concentration not given) was about 100%. Moreover, the inhibition at 14 µM on CpLIP2 lipase [3] (read-out: inhibition of CpLIP2 catalytic activity) stood at 90%. The remaining activity at 14 µM at CpLIP2 lipase [3] (read-out: residual activity, 14 µM (25-fold molar excess), 1 min pre-incubation) came out at 17.7%. Also, at CpLIP2 lipase [3] (read-out: residual activity, 27.5 µM (50-fold), 1 min pre-incubation), the remaining activity at 27.5 µM is 3.9%. Besides, the remaining activity at 55 µM at CpLIP2 lipase [3] (read-out: residual activity, 55 µM (100-fold), 1 min pre-incubation) came out at 2.3%.
In general, IC50 refers to the midpoint of a concentration-inhibition curve. As for (±)-catechin [reference compound], the IC50 in test [4] is 7500 µM.
